The source of these data is patent EP4755885A1 (Shanghai Hansoh Biomedical Co., Ltd., priority 2023, dated 2025).

One series deals with T1, human GLP-1 receptor (Homo sapiens, UniProt P43220).
T1 construct: expressed in transfected cells
As to the kind of experiment: cAMP production in cell line stably transformed with human GLP1 receptor, 2 h co-incubation (HTRF). In kind it is cell-based. The conditions noted are these: CHO-K1/GLP-1R/CRE-luc cells, stimulation for 2 h, read-out: EC50. The method, then: The purpose of this assay example is to test the ability of the compound to activate the human GLP-1 receptor on cell surface. The EC50 for stimulated cAMP production after activation characterizes the ability of the compound to activate the human GLP-1 receptor.
In this experiment, the compound and cells were co-incubated for 2 h.
Frozen cell line CHO-K1/GLP-1R/CRE-luc stably transformed with human GLP1 receptor was removed from a liquid nitrogen tank, and was placed in a 37°C water bath for rapid thawing. The cells were resuspended in DMEM/F12 medium, and after centrifugation, were washed once. The cells were resuspended in an experimental buffer, i.e., DMEM/F12 medium containing 0.1% casein. After centrifugation, cell density was adjusted using the experimental buffer. The cells were plated onto a 384-well plate at a density of 1500 cells/5 µL/well. Then, each well was added with 2.5 µL of IBMX working solution prepared with the buffer, the final concentration of IBMX being 0.5 mM, and 2.5 µL of a serially diluted compound sample (starting from […], 3-fold dilution, 12 concentrations). The plate was centrifuged at 1000 rpm for 1 min, and was stood for incubation at 37°C for 2 h. Determination was performed using the Cisbio cAMP - Gs Dynamic kit. cAMP-d2 and anti-cAMP-Eu3+-Cryptate were diluted 18-fold and 20-fold respectively with cAMP Lysis & Detection Buffer, and were respectively mixed homogeneously. Each well was added with 5 µL of diluted cAMP-d2 solution, and the plate was centrifuged at 1000 rpm for 1 min, and shaken for 30 seconds for homogeneous mixing. Then, each well was added with 5 µL of diluted anti-cAMP-Eu3+-Cryptate solution, and the plate was centrifuged at 1000 rpm for 1 min and was incubated in the dark at room temperature for 1 h. HTRF signals were read using the Biotek Synergy H1 microplate reader, the excitation wavelength being 320 nm and the emission wavelengths being 620 nm and 665 nm.
The signal-to-signal ratio was calculated (665 nm/620 nm * 10,000). Nonlinear fitting between the signal-to-signal ratio and the sample concentration was performed in GraphPad Prism 10 using a four-parameter equation to obtain the EC50 value.

Series [1] can be described thus: Pharmacokinetic evaluation in mice, oral administration. The class given is in vivo, Balb/c mice. As to conditions: p.o. 5 mg/kg, plasma; for AUC(0-inf) / AUC(0-t) / Cmax / Tmax / MRT inf: mouse, in vivo, po; for MRT inf: read-out: MRT 0-∞. The method, then:
Balb/c mice were used as test animals to study the pharmacokinetic behavior of the compound of the present invention in mice (plasma) at a dose of 5 mg/kg administered orally and 1 mg/kg administered intravenously.
Balb/c mice, 3 per group, male.
(§1) Preparation of drug for oral administration: 10%PEG400/10%PG/80% glycine buffer (100 mM glycine, 64 Mm NaOH, […]) buffer.
10 ml of PEG400, 10 ml of PG, and 80 ml of (100 mM glycine, 64 Mm NaOH, pH = 9) were measured into a 100 ml volumetric flask, vortexed, mixed homogeneously, and sonicated to obtain a clear solution.
Single PK: An example compound was weighed into a 4 mL glass bottle. The solution was added, and sonication was performed for 10 min to obtain a colorless clear solution having a concentration of 0.5 mg/mL.
The solution was added, and sonication was performed for 10 min to obtain a colorless clear solution having a concentration of 0.5 mg/mL.
Three Balb/c mice, male, respectively administered p.o. after fasting overnight, at a dose of 5 mg/kg and in an administration volume of 10 mL/kg.
The blood samples were placed in EDTA-K2 anticoagulant tubes and centrifuged at 6000 rpm at 4°C for 6 min to separate plasma, which was stored at -80°C. The mice were fed 4 h after administration.
(§2) • 1) 40 µL of a plasma sample was added with 160 µL of acetonitrile for precipitation, and after mixing, the mixture was centrifuged at 3500 × g for 5 to 20 min. • 2) The supernatant solution after treatment was taken for LC/MS/MS analysis of the concentration of the test compound. The LC/MS/MS analysis instrument was AB Sciex API 4000 Qtrap.
• Liquid phase condition: Shimadzu LC-20AD pump • Chromatographic column: Agilent ZORBAX XDB-C18 (50×2.1 mm, 3.5 µm) Mobile phase: Solution A was 0.1% formic acid aqueous solution, and Solution B was acetonitrile • Flow rate: 0.4 mL/min • Elution time: 0-4.0 min, the eluent was as follows:
Main pharmacokinetic parameters were calculated using WinNonlin 6.1.

Series [2] in a line: Pharmacokinetic evaluation in beagles, oral administration. In kind it is in vivo. As to conditions: p.o. 2 mg/kg, plasma; for MRT inf: read-out: MRT 0-∞. The method, then: Beagles were used as test animals to study the pharmacokinetic behavior of the compound of the present invention, administered orally at a dose of 2 mg/kg, in beagles (plasma).
Beagles, 3 per group, male.
as §1
Single PK: The compound of the present invention was weighed into a 100 mL glass bottle, and the solution was added. The pH was first adjusted with 1 M NaOH until the compound dissolves to obtain a clear solution, and then the pH was readjusted to pH 9.0-9.5 with 1 M HCl. Sonication was performed for 10 min to obtain a colorless clear solution having a concentration of 0.4 mg/mL.
Three beagles, male, respectively administered p.o. after fasting overnight, at a dose of 2 mg/kg and in an administration volume of 5 mL/kg.
Blood collection: 0.3 mL of blood was collected from the forelimb vein of the beagles before administration and at 0.25, 0.5, 1, 2, 4, 6, 8, and 24 h after administration. The blood samples were placed in EDTA-K2 anticoagulant tubes and centrifuged at 6000 rpm at 4°C for 6 min to separate plasma, which was stored at -80°C. The beagles were fed 4 h after administration.
as §2
• Liquid phase condition: Shimadzu LC-20AD pump • Chromatographic column: Agilent ZORBAX XDB-C18 (50×2.1 mm, 3.5 µm) Mobile phase: Solution A was 0.1% formic acid aqueous solution, and Solution B was acetonitrile • Flow rate: 0.4 mL/min • Elution time: 0-4.0 min, the eluent was as follows: […]

Setting [3] is: not marked single PK (cassette PK).

T1 sequence (P43220 24-463): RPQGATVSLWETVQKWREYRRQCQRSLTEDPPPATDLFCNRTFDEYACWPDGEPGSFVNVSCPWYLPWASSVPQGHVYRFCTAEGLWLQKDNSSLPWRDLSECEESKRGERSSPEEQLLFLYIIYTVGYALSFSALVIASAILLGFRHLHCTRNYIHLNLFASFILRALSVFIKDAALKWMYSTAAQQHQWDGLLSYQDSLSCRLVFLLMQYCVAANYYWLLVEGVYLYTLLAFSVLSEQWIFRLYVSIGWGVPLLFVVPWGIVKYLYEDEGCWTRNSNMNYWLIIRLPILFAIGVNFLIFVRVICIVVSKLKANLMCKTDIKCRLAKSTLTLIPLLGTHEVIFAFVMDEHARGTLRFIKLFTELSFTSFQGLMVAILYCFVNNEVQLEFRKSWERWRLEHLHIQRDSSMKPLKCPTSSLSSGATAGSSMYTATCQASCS

What is called EC50 is the concentration needed to bring the measured effect to its halfway point. As usually defined, the AUC(0-inf) is total exposure, with the tail of the curve extrapolated. Low readings indicate less exposure, high ones more exposure. As usually defined, the AUC(0-t) is the area under the concentration-time curve up to a stated or last time point. Read a high AUC(0-t) as high exposure. The Cmax is the highest concentration seen after dosing. By Tmax is commonly meant the time at which the peak concentration occurs. Regarding `Cc1cc(-n2nc3c(c2-n2ccn(-c4ccc5c(cnn5C5CC5)c4F)c2=O)[C@H](C)N(C(=O)c2cc4cc([C@H]5CCOC(C)(C)C5)ccc4n2[C@@]2(c4noc(=O)[nH]4)C[C@@H]2C)CC3)cc(C)c1C#N` [Example 49], the EC50 on human GLP-1 receptor came out at 32 pM. Further, in series [1] (single PK), the area under the curve AUC(0-inf) is 16600 ng·h/mL, the AUC(0-t) was 15700 ng·h/mL, the peak level (Cmax) was 2430 ng/mL and the Tmax came to 1 h. In addition, in series [1] (single PK), the MRT inf was 7.1 h and the tl/2 worked out at 6.5 h.

`Cc1cc(-n2nc3c(c2-n2ccn(-c4cc5c6c(c4)CCC(=O)N6CCC5)c2=O)[C@H](C)N(C(=O)c2cc4cc([C@H]5CCOC(C)(C)C5)ccc4n2[C@@]2(c4noc(=O)[nH]4)C[C@@H]2COC2CC2)CC3)cc(C)c1F` [Example 200]: at human GLP-1 receptor, the concentration for a half-maximal effect (EC50) came out at 90 pM.

For the molecule `Cc1cc(-n2nc3c(c2-n2ccn(-c4ccc5c(cnn5C5CC5)c4F)c2=O)[C@H](C)N(C(=O)c2cc4cc([C@H]5CCOC(C)(C)C5)ccc4n2[C@@]2(c4noc(=O)[nH]4)C[C@@H]2COC(F)F)CC3)cc(C)c1F` [Example 68], at human GLP-1 receptor, the concentration giving a half-maximal response (EC50) was determined as 16 pM.

Take `C[C@H]1c2c(nn(-c3ccc(F)c(C4CC4)c3)c2-n2ccn(-c3ccc4c(c3)C3(CC3)C(=O)N4C)c2=O)CCN1C(=O)c1cc2cc([C@H]3CCOC(C)(C)C3)ccc2n1[C@@]1(c2noc(=O)[nH]2)C[C@@H]1C` [Example 32]: in series [1] (setting [3]), the AUC(0-inf) amounted to 9320 ng·h/mL, the AUC(0-t) stood at 8990 ng·h/mL, the concentration peaked (Cmax) at 1040 ng/mL and the Tmax was found to be 1 h. Also, in series [1] (setting [3]), the MRT inf turned out to be 6.7 h and the tl/2 is listed as 5.3 h.

Turning to `Cc1cc(-n2nc3c(c2-n2ccn(-c4ccc5c(cnn5C5CC5)c4F)c2=O)[C@H](C)N(C(=O)c2cc4cc([C@H]5CCOC(C)(C)C5)ccc4n2[C@@]2(c4noc(=O)[nH]4)C[C@@H]2C#N)CC3)cc(C)c1F` [Example 190], the concentration giving a half-maximal response (EC50) at human GLP-1 receptor was 40 pM.

Take `C#C[C@H]1C[C@]1(c1noc(=O)[nH]1)n1c(C(=O)N2CCc3nn(-c4cc(C)c(F)c(C)c4)c(-n4ccn(-c5cc6c7c(c5)CCC(=O)N7CCC6)c4=O)c3[C@@H]2C)cc2cc([C@H]3CCOC(C)(C)C3)ccc21` [Example 174]: the EC50 on human GLP-1 receptor turned out to be 150 pM.

In general, half-life refers to how long it takes for the measured level to halve. `[2H]C([2H])(OC1CC1)[C@H]1C[C@]1(c1noc(=O)[nH]1)n1c(C(=O)N2CCc3nn(-c4cc(C)c(F)c(C)c4)c(-n4ccn(-c5ccc6c(cnn6C6CC6)c5F)c4=O)c3[C@@H]2C)cc2cc([C@H]3CCOC(C)(C)C3)ccc21` [Example 194]: the EC50 on human GLP-1 receptor is 9 pM. Besides, in series [1] (setting [3]), the AUC(0-inf) worked out at 32200 ng·h/mL, the AUC(0-t) amounted to 19100 ng·h/mL, the peak level (Cmax) was 1840 ng/mL and the Tmax was determined as 2.7 h. Also, in series [1] (setting [3]), the MRT inf is 26.6 h and the tl/2 was determined as 19.9 h. For the same molecule, in series [2] (dog, po), the total exposure AUC(0-inf) amounted to 43700 ng·h/mL, the AUC(0-t) at 24 h amounted to 40100 ng·h/mL, the half-life was 7.6 h and the MRT inf was 8.3 h. Besides, the peak concentration (Cmax) in series [2] (dog, po, read-out: Cmax) stood at 5830 ng/mL. Also, in series [2] (dog, po, read-out: tmax), the Tmax is 1 h.

“3-((3R,4r,5 S)-4-(5-((S)-2,2-dimethyltetrahydro-2H-pyran-4-yl)-2-((S)-3-(3-(4-fluoro-1-(methyl-d3)-1H-indazol-5-yl)-2-carbonyl-2,3-dihydro-1H-imidazol-1-yl)-2-(4-fluoro-3,5-dimethylbenzene)-4-methyl-4,5,6,7-tetrahydro-2H-pyrazolo[4,3-c]pyridine-5-carbonyl)-1H-indol-1-yl)tetrahydro-2H-pyran-4-yl)-1,2,4-oxadiazol-5(4H)-one [Example 338]”: the EC50 at human GLP-1 receptor is 23 pM. Further, in series [2], the “AUC 0-∞” value was 21417 ng·h/mL, the area under the curve AUC(0-t) was 20922 ng·h/mL, the Cmax worked out at 3915 ng/mL and the “MRT 0-∞” value was 5.3 h. Further, in series [2], the time to peak (Tmax) is listed as 1.3 h and the t1/2 was 4.4 h.

Consider `Cc1cc(-n2nc3c(c2-n2ccn(-c4ccc5c(cnn5C5CC5)c4F)c2=O)[C@H](C)N(C(=O)c2cc4cc([C@H]5CCOC(C)(C)C5)ccc4n2[C@@]2(c4noc(=O)[nH]4)C[C@@H]2COc2ccccc2)CC3)cc(C)c1F` [Example 187], for which the EC50 on human GLP-1 receptor was found to be 80 pM.

For the molecule `Cc1cc(-n2nc3c(c2-n2ccn(-c4ccc5c(cnn5C5CC5)c4F)c2=O)[C@H](C)N(C(=O)c2cc4cc([C@H]5CCOC(C)(C)C5)ccc4n2[C@@]2(c4noc(=O)[nH]4)C[C@@H]2COC2CC2)CC3)cc(C)c1C#N` [Example 195], the EC50 at human GLP-1 receptor stood at 35 pM.

As to `Cc1cc(-n2nc3c(c2-n2ccn(-c4cc5c6c(c4)OCCN6C(=O)CC5)c2=O)[C@H](C)N(C(=O)c2cc4cc([C@H]5CCOC(C)(C)C5)ccc4n2[C@@]2(c4noc(=O)[nH]4)C[C@@H]2C)CC3)cc(C)c1F` [Example 43], at human GLP-1 receptor, the EC50 amounted to 60 pM.

In the case of `Cc1cc(-n2nc3c(c2-n2ccn(-c4cc5c6c(c4)CCC(=O)N6CCC5)c2=O)[C@H](C)N(C(=O)c2cc4cc([C@H]5CCOC(C)(C)C5)ccc4n2[C@@]2(c4noc(=O)[nH]4)C[C@@H]2C)CC3)cc(C)c1F` [Example 34], the EC50 at human GLP-1 receptor is 110 pM. Further, in series [1] (single PK), the area under the curve AUC(0-inf) was 13300 ng·h/mL, the AUC(0-t) came to 12100 ng·h/mL, the peak level (Cmax) was 1510 ng/mL and the Tmax amounted to 1 h. For the same molecule, in series [1] (single PK), the MRT inf was determined as 9 h and the tl/2 was 7.8 h. For the same molecule, in series [2] (dog, po), the AUC(0-inf) is 9390 ng·h/mL, the exposure AUC(0-t) at 24 h was found to be 9090 ng·h/mL, the half-life is 5.1 h and the MRT inf stood at 5.7 h. Further, in series [2] (dog, po, read-out: Cmax), the Cmax worked out at 1330 ng/mL. Also, the time to peak (Tmax) in series [2] (dog, po, read-out: tmax) is 1.7 h.
